In patent US10363249B2, “Fatty acid synthase inhibitor for use in the treatment of drug resistant cancer” (3-V Biosciences, Inc., priority 2014, dated 2019):
Where “and” joins values, the source holds several entries; their conditions need not be identical. Equal values may be shown once.

Assays:
[1] = test system: BxPC3 AbR (paclitaxel resistant) cells; assay: Nab-paclitaxel dose response with fixed FASN inhibitor, CellTiter-Glo viability, BxPC3 AbR; conditions: for 3-Day IC50 Ratio + Compound 5 / 7-Day IC50 Ratio + Compound 5: BxPC3 AbR
Experimental: (§1) For drug treatment, MIA PaCa-2 or BxPC-3 cells were plated in %-well plates in RPMI medium plus 10% FBS. Parental (paclitaxel sensitive) or AbR (paclitaxel resistant) variants of the MIA PaCa-2 or BxPC-3 cell lines were used. […] Serial dilutions of Nab-paclitaxel were prepared in DMSO and further diluted 1:10 in RPMI medium for addition to the assay solution. RPMI-diluted compounds were added to each well 24-hours after cell plating. Assays were done in triplicate for each drug concentration, with cell viability measured at 3 or 7 days after compound addition. The number of viable cells was measured using the CellTiter-Glo assay (Promega) according to the manufactures instructions. Luminosity per well was determined and the signal intensity was analyzed versus drug concentration. For each FASN inhibitor, the concentration of drug resulting in 50% inhibition of the maximum signal was determined, and this value was reported as the IC50.

[2] = test system: BxPC3 Parental (paclitaxel sensitive) cells; assay: Nab-paclitaxel dose response with fixed FASN inhibitor, CellTiter-Glo viability, BxPC3 Parental
Experimental: as §1

[3] = test system: MIA PaCa-2 AbR (paclitaxel resistant) cells; assay: Nab-paclitaxel dose response with fixed FASN inhibitor, CellTiter-Glo viability, MIA PaCa-2 AbR; conditions: for 3-Day IC50 Ratio + Compound 5 / 7-Day IC50 Ratio + Compound 5: MIA PaCa-2 AbR
Experimental: as §1

[4] = test system: MIA PaCa-2 Parental (paclitaxel sensitive) cells; assay: Nab-paclitaxel dose response with fixed FASN inhibitor, CellTiter-Glo viability, MIA PaCa-2 Parental
Experimental: as §1

3-Day IC50 Ratio + Compound 5 ([1]; + Compound 5 0.2 μM): 1.46
7-Day IC50 Ratio + Compound 5 ([1]; + Compound 5 0.2 μM): 1.29
3-Day IC50 Ratio + Compound 5 ([1]; + Compound 5 2.0 μM): 5.57
7-Day IC50 Ratio + Compound 5 ([1]; + Compound 5 2.0 μM): 3.98
shift of the BxPC-3 Nab-paclitaxel IC50 value ([1]; BxPC-3 paclitaxel resistant (AbR), Compound 5, 3 and 7 days (Table 2)): 4.0 fold and 5.6 fold
3-Day IC50 Ratio + Compound 5 ([3]; + Compound 5 0.2 μM): 1.46
7-Day IC50 Ratio + Compound 5 ([3]; + Compound 5 0.2 μM): 1.04
3-Day IC50 Ratio + Compound 5 ([3]; + Compound 5 2.0 μM): 2.73
7-Day IC50 Ratio + Compound 5 ([3]; + Compound 5 2.0 μM): 3.37
shift of the MIA PaCa-2 Nab-paclitaxel IC50 value ([3]; MIA PaCa-2 paclitaxel resistant (AbR), Compound 5, 3 and 7 days (Table 2)): 2.7 fold and 3.4 fold
Structure (SMILES): Cc1cc(C)c(-c2[nH]c(C3COC3)nc2C)cc1C(=O)N1CC(c2ccc(C#N)cc2)C1 [Compound 5]
3-Day IC50 Ratio + Compound 5 ([2]; + Compound 5 0.2 μM): 0.92
7-Day IC50 Ratio + Compound 5 ([2]; + Compound 5 0.2 μM): 0.61
3-Day IC50 Ratio + Compound 5 ([2]; + Compound 5 2.0 μM): 0.63
7-Day IC50 Ratio + Compound 5 ([2]; + Compound 5 2.0 μM): 0.63
3-Day IC50 Ratio + Compound 5 ([4]; + Compound 5 0.2 μM): 1.18
7-Day IC50 Ratio + Compound 5 ([4]; + Compound 5 0.2 μM): 1.09
3-Day IC50 Ratio + Compound 5 ([4]; + Compound 5 2.0 μM): 1.59
7-Day IC50 Ratio + Compound 5 ([4]; + Compound 5 2.0 μM): 1.88
